Measurements published in the NIST ThermoML archive (doi:10.1021/je700152c).
Numbers after ± are expanded uncertainties.

Experiment: molar heat capacity at saturation pressure

CCCCn1cc[n+](C)c1.Cc1ccc(S(=O)(=O)[O-])cc1 [1-butyl-3-methylimidazolium tosylate]
Conditions	molar heat capacity [J/K/mol]
317.39 K, Crystal 1	512.18 ± 5.3
317.42 K, Metastable crystal	550.67 ± 5.6
317.78 K, Crystal 1	512.49 ± 5.3
319.11 K, Crystal 1	529.25 ± 5.3
319.18 K, Crystal 1	534.53 ± 5.6
319.26 K, Metastable crystal	573.33 ± 5.9
319.29 K, Crystal 1	524.29 ± 5.3
319.67 K, Crystal 1	527.08 ± 5.3
320.98 K, Crystal 1	545.71 ± 5.6
321.05 K, Crystal 1	553.47 ± 5.6
321.06 K, Metastable crystal	600.03 ± 6.2
321.17 K, Crystal 1	538.26 ± 5.6
321.53 K, Crystal 1	544.77 ± 5.6
322.82 K, Crystal 1	565.88 ± 5.6
322.82 K, Metastable crystal	633.24 ± 6.5
322.89 K, Crystal 1	575.51 ± 5.9
323.03 K, Crystal 1	555.95 ± 5.6
323.37 K, Crystal 1	566.5 ± 5.9
324.53 K, Metastable crystal	675.15 ± 6.8
324.63 K, Crystal 1	590.72 ± 5.9
324.69 K, Crystal 1	602.51 ± 6.2
324.85 K, Crystal 1	578.61 ± 5.9
325.17 K, Crystal 1	593.51 ± 5.9
326.19 K, Metastable crystal	727.92 ± 7.4
326.41 K, Crystal 1	621.45 ± 6.2
326.45 K, Crystal 1	635.42 ± 6.5
326.64 K, Crystal 1	607.48 ± 6.2
326.92 K, Crystal 1	628.28 ± 6.5
328.13 K, Crystal 1	660.56 ± 6.8
328.17 K, Crystal 1	676.7 ± 6.8
328.38 K, Crystal 1	644.42 ± 6.5
328.62 K, Crystal 1	675.15 ± 6.8
329.79 K, Crystal 1	710.85 ± 7.1
329.82 K, Crystal 1	728.23 ± 7.4
330.07 K, Crystal 1	691.29 ± 7.1
330.24 K, Crystal 1	740.02 ± 7.4
340.93 K, Metastable crystal	542.91 ± 19
342.74 K, Crystal 1	648.45 ± 23
342.82 K, Liquid	542.91 ± 5.6
343.34 K, Crystal 1	571.47 ± 6.2
343.81 K, Crystal 1	550.05 ± 5.6
343.97 K, Liquid	543.84 ± 5.6
344.54 K, Liquid	545.4 ± 5.6
344.72 K, Liquid	544.77 ± 5.6
345.34 K, Liquid	544.46 ± 5.6
346.06 K, Liquid	544.77 ± 5.6
346.43 K, Liquid	546.33 ± 5.6
346.46 K, Liquid	546.64 ± 5.6
346.61 K, Liquid	546.02 ± 5.6
347.35 K, Liquid	545.71 ± 5.6
348.14 K, Liquid	546.02 ± 5.6
348.31 K, Liquid	547.57 ± 5.6
348.49 K, Liquid	547.26 ± 5.6
348.72 K, Liquid	547.57 ± 5.6
348.77 K, Liquid	547.57 ± 5.6
350.2 K, Liquid	549.43 ± 5.6
350.6 K, Liquid	549.12 ± 5.6
350.64 K, Liquid	549.12 ± 5.6
352.08 K, Liquid	550.98 ± 5.6
352.48 K, Liquid	550.36 ± 5.6
352.5 K, Liquid	550.36 ± 5.6
353.97 K, Liquid	552.22 ± 5.6
354.36 K, Liquid	551.6 ± 5.6
354.37 K, Liquid	551.91 ± 5.6
355.86 K, Liquid	553.47 ± 5.6
356.24 K, Liquid	553.16 ± 5.6
356.25 K, Liquid	553.16 ± 5.6
357.74 K, Liquid	555.02 ± 5.6
358.11 K, Liquid	554.71 ± 5.6
358.12 K, Liquid	554.71 ± 5.6
359.64 K, Liquid	556.26 ± 5.6
359.97 K, Liquid	555.95 ± 5.6
360 K, Liquid	555.95 ± 5.6
361.53 K, Liquid	557.81 ± 5.6
361.84 K, Liquid	557.5 ± 5.6
361.88 K, Liquid	557.5 ± 5.6
363.42 K, Liquid	559.05 ± 5.6
363.75 K, Liquid	558.74 ± 5.6
365.3 K, Liquid	560.3 ± 5.6
365.62 K, Liquid	559.98 ± 5.6
367.19 K, Liquid	561.85 ± 5.6
367.5 K, Liquid	561.54 ± 5.6
